Data set [1] relates to MRC-9 diploid fibroblast cells. The data set can be described thus: 3H-thymidine incorporation growth assay in normal cells. Conditions: MRC-9 vs tumor cells; FIG. 9. Format: cell-based. The method, then:
In a second experiment, the efficacy of treatment of normal cells (MRC-9 cells) was compared with tumor cells (FIG. 9). In this experiment, growth was assayed as ^3H-thymidine incorporation rather than the MTT assay. […] As would be expected, the effect of tumor suppressor alone was negligible in normal cells and highly significant in tumor cells.

The subject of data set [2] is intraperitoneal SK-OV-3 tumors. The data set is described as follows: SK-OV-3 ovarian tumor model, cisplatin efficacy. Format: in vivo, scid mice. The conditions noted are these: day 20. The method, then:
There were normally ten mice per group.
Established intraperitoneal SK-OV-3 tumors were treated with intraperitoneal doses of vehicles, p53 Ad, cisplatin, or both drugs. Mice were given six injections of p53 Ad over a period of two weeks. The total virus dose was 1.5×10^9 C.I.U. (3.1×10^10 viral particles).
Cisplatin efficacy: Female scid mice were injected with 5×10^6 SK-OV-3 ovarian tumor cells, I.P., on day 0. Mice were dosed I.P. on days 6, 8, 10, 13, 15, and 17 (p53 Ad only on D17). Mice received 0.2 ml total volume (0.1 ml cisplatin vehicle or cisplatin plus 0.1 ml Ad buffer or p53 Ad). The p53 Ad dose was 2.5×10^8 C.I.U./mouse/day (5.2×10^9 viral particles). The cisplatin dose was 2 mg/kg/day. Tumors were harvested and weighed on day 20.

The subject of data set [3] is MDA-MB-231 tumors. The data set is described as follows: Tumor growth with adenovirus in the absence or presence of low dose dexamethasone. Conditions: s.c. pellet releasing 83.3 μg dexamethasone/day. The method, then:
To investigate whether the immunosuppressant properties of low dose Dexamethasone (Dex) can inhibit the anti-adenovirus immune response (e.g., NK cell response) MDA-MB-231 tumors in scid mice were treated with recombinant virus of the invention in the absence and in the presence of dexamethasone.
Approximately 5×10^6 MDA-MB-231 cells/mouse were injected into the mammary fat pads of female scid mice on day 0. On day 11, dexamethasone or placebo pellets were implanted subcutaneously. The 5 mg pellets were designed to release 83.3 μg dexamethasone/day continuously for 60 days (Innovative Research of America, Sarasota, Fla.). All mice received a total of 10 peritumoral injections given once a day on days 14–18 and 21–25 (0.1 ml per injection).

For data set [4], the system named is SK-OV-3 ovarian tumor cells. The data set is described as follows: MTT cell death assay, p53 adenovirus combined with anti-cancer drug. Format: cell-based, human. The conditions noted are these: FIG. 1, TAXOL 0.001-20 μg/ml, p53 Ad 0.5-50 m.o.i., MTT on day 3. The method, then:
In treatment three, the cells were contacted simultaneously with both the TAXOL® and the p53 adenovirus. Thus, the p53 Ad and TAXOL® can be administered within the same twenty four (24) hour period or concurrently.
Approximately 1.5×10^4 cells in culture medium (head and neck cell lines SCC-9, SCC-15, and SCC-25 in 1:1 mix of DMEM+ Ham's F12 media with 0;4 μg/ml cortisol and 10% FBS and 1% non-essential amino acids, prostate DU-145 and Ovarian SK-OV-3 in Eagles essential medium plus 10% FBS) were added to each well on a 96 well microtitre plate and cultured for about 4 hours at 37° C. and 5% CO2.
Cell death was then quantitated according to the method of Mosmann (1983) J. Immunol. Meth., 65: 55–63.
Dosing was performed as described above. Cell death was quantitated on day 3 using the MTT assay as described above. In addition, a dose response curve for p53 Ad alone (using the doses listed in Table 2) was generated (after […] cell exposure to the drug) and a dose response curve for TAXOL® alone was performed using the doses listed above (3 day cell exposure to the drug).
All cell lines were obtained from ATCC (Rockville, Md.). […]

For the compound `COc1cc([C@@H]2c3cc4c(cc3[C@@H](O[C@@H]3O[C@@H]5CO[C@@H](C)O[C@H]5[C@H](O)[C@H]3O)[C@H]3COC(=O)[C@H]23)OCO4)cc(OC)c1O` [etoposide], the “effect of anti-cancer chemotherapeutic alone, normal vs cancer cells” value in data set [1] was “more effective in normal cells than cancer cells”.
The same measure, in the same setting: to `O=c1[nH]cc(F)c(=O)[nH]1` [5-FU, 5-fluorouracil] belongs “more effective in normal cells than cancer cells”.
Still for that read-out and setting: to `COc1cccc2c1C(=O)c1c(O)c3c(c(O)c1C2=O)C[C@@](O)(C(=O)CO)C[C@@H]3O[C@H]1C[C@H](N)[C@H](O)[C@H](C)O1` [doxorubicin] belongs “more effective in normal cells than cancer cells”; to `CN(Cc1cnc2nc(N)nc(N)c2n1)c1ccc(C(=O)N[C@@H](CCC(=O)O)C(=O)O)cc1` [methotrexate], “more effective in normal cells than cancer cells”.
As to `N.N.[Cl][Pt][Cl]` [cisplatin], in data set [1], the “effect of anti-cancer chemotherapeutic alone, normal vs cancer cells” value is “more effective in normal cells than cancer cells”. In addition, in data set [2], the “bloody ascites and invasive tumor nodules in the diaphragm muscle” value is “absent”.
For `C[C@@H]1C[C@H]2[C@@H]3CCC4=CC(=O)C=C[C@]4(C)[C@@]3(F)[C@@H](O)C[C@]2(C)[C@@]1(O)C(=O)CO` [dexamethasone], in data set [3], the adverse side effects result is reported as “No adverse side effects” and the “effect on the growth rate of tumors” value is recorded as “no significant effect”.
For the compound `CC(=O)O[C@H]1C(=O)[C@@]2(C)[C@H]([C@H](OC(=O)c3ccccc3)[C@]3(O)C[C@H](OC(=O)[C@H](O)[C@@H](NC(=O)c4ccccc4)c4ccccc4)C(C)=C1C3(C)C)[C@]1(OC(C)=O)CO[C@@H]1C[C@@H]2O` [TAXOL ®, paclitaxel], the “inhibition of cell proliferation (as compared to the buffer control)” value in data set [4] is recorded as “decreased the rate of cell proliferation”.
